Values after ≈ are worked out from the molar mass of the structure shown.
Columns and labels:
P. aeruginosa biofilms [1] = test: Biofilm growth assay (spreading biofilm on semi-solid agar), P. aeruginosa; type: cell-based; set-up: P. aeruginosa (n = 10) inhibitory concentration in the biofilm growth assay: unit: ug/mL; conditions: for P. aeruginosa (n = 10) inhibitory concentration in the biofilm growth assay: Table 6, n = 10 isolates; for IC85: Pseudomonas aeruginosa, biofilm growth assay, vs negative controls, Tables 1-5, read-out: P. aeruginosa: concentration that reduces the area of the spreading biofilm by greater than or equal to 85%
Procedure, shortened: (§1)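 Values are compound concentrations (μg/ml) that cut the spreading-biofilm zone area by ≥85% relative to negative controls after overnight 37 °C growth from 5 μL central inoculum. E. coli plates: LB, 0.6% agar, 0.5% glucose; P. aeruginosa plates: M8 agar plus 0.2% glucose, 100 μM CaCl2, 1 mM MgSO4, 0.5% Casamino acids.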

E. coli biofilms = test: Biofilm growth assay (spreading biofilm on semi-solid agar), E. coli; type: cell-based; set-up: E. coli (n = 10) inhibitory concentration in the biofilm growth assay: unit: ug/mL; conditions: for E. coli (n = 10) inhibitory concentration in the biofilm growth assay: Table 6, n = 10 isolates; for IC85: Escherichia coli, biofilm growth assay, overnight 37° C., vs negative controls, Tables 1-5, read-out: E. coli: concentration that reduces the area of the spreading biofilm by greater than or equal to 85%
Procedure, shortened: as §1

Salmonella spp. = test: Biofilm growth assay, Salmonella spp.; type: cell-based; conditions: Table 6, n = 6 isolates; Nutrient Broth, 0.5% glucose, 0.5% Noble agar
Protocol: The biofilm growth assay was carried out to measure swarming or biofilm spreading on semi-solid agar media in round plates (for example, 100×15 mm), also referred to as Petri dishes. For E. coli, the plates contained LB medium with 0.6% agar and 0.5% glucose. P. aeruginosa plates were made with M8 agar supplemented with 0.2% glucose, 100 μM CaCl2, 1 mM MgSO4, and 0.5% Casamino acids. The agar plates of this assay consisted of 0.4% to 0.7% agar (Bacto or Noble agar), although other media may also be used as described in the literature and known to those skilled in the art. Test compounds at the desired concentration were added to the cooled, autoclaved media. Portions of the media were then poured into the plates (20 mL/plate), and the plates allowed to dry at room temperature for approximately 3 to 4 hours. Alternatively, however, plates may be dried in a laminar flow hood for approximately fifteen to twenty minutes. Overnight cultures were grown in a 37° C. shaker in LB (E. coli) or TSB (P. aeruginosa). Plates were inoculated by placing 5 μL of the appropriate overnight culture in the centers of the plates. The plates then were incubated overnight at 37° C. The area of the zone of spreading bacteria was then measured and replicates are averaged. Percent inhibition was calculated as 100×(area without compound−area with compound)/(area without compound). An active compound was considered that which reduces the area of the spreading biofilm compared to negative controls by greater than or equal to 85%. The values shown in Table 1 are the concentrations of compounds (μg/ml) tested in the biofilm growth assay that reduce the area of the spreading biofilm compared to negative controls by greater than or equal to 85% unless noted differently in Table 1. A > (“greater than” symbol) as used in Table 1 is well understood to those skilled in the art as an indication that the listed concentration was not effective at this concentration.
(§2) Table 6, below, lists the inhibitory concentrations of select compounds and antibiotics in the biofilm growth assay against various gram-negative bacterial biofilms. “N” means the number of isolates of bacteria tested. The biofilm growth assay procedure detailed in Example I, above, was followed. Burkholderia cepacia used media consisting of M9 salts, 100 μM CaCl2, 1 mM MgSO4, and 0.7% citrate in 0.4% Noble agar. Salmonella spp. used media consisting of Nutrient Broth with 0.5% glucose in 0.5% Noble agar.

B. cepacia = test: Biofilm growth assay, Burkholderia cepacia; type: cell-based; conditions: Table 6, n = 10 isolates; M9 salts, 0.7% citrate, 0.4% Noble agar
Protocol: The biofilm growth assay was carried out to measure swarming or biofilm spreading on semi-solid agar media in round plates (for example, 100×15 mm), also referred to as Petri dishes. For E. coli, the plates contained LB medium with 0.6% agar and 0.5% glucose. P. aeruginosa plates were made with M8 agar supplemented with 0.2% glucose, 100 μM CaCl2, 1 mM MgSO4, and 0.5% Casamino acids. The agar plates of this assay consisted of 0.4% to 0.7% agar (Bacto or Noble agar), although other media may also be used as described in the literature and known to those skilled in the art. Test compounds at the desired concentration were added to the cooled, autoclaved media. Portions of the media were then poured into the plates (20 mL/plate), and the plates allowed to dry at room temperature for approximately 3 to 4 hours. Alternatively, however, plates may be dried in a laminar flow hood for approximately fifteen to twenty minutes. Overnight cultures were grown in a 37° C. shaker in LB (E. coli) or TSB (P. aeruginosa). Plates were inoculated by placing 5 μL of the appropriate overnight culture in the centers of the plates. The plates then were incubated overnight at 37° C. The area of the zone of spreading bacteria was then measured and replicates are averaged. Percent inhibition was calculated as 100×(area without compound−area with compound)/(area without compound). […] A > (“greater than” symbol) as used in Table 1 is well understood to those skilled in the art as an indication that the listed concentration was not effective at this concentration.
as §2

P. aeruginosa biofilms [2] = test: Biofilm Growth Assay with compound in half of the agar and antibiotic disks; type: cell-based; conditions: 0.125 μg/ml in agar with colistin 10 μg disks
Protocol: The Biofilm Growth Assay as described in Example VII was performed in round plates with the compounds of the invention in agar on half of the plate and antibiotic disks placed onto the agar containing the compounds of the invention.
The Biofilm Growth Assay was performed as described in Example VIII. 2 to 4 antibiotic disks were placed onto the agar containing a compound of the invention in a line parallel to the line that separates the two agars in one round plate. Appropriate negative and positive control plates were performed as known to those skilled in the art.

Xanthomonas campestris = test: Biofilm growth assay, plant pathogen Xanthomonas campestris; type: cell-based; conditions: M8 salts, 0.7% glucose, 0.5% Noble agar, 30° C., 24 to 48 hours
cysB = conditions: as described in U.S. Pat. No. 7,604,978; cited from earlier work
Pseudomonas syringae = test: Biofilm growth assay, plant pathogen Pseudomonas syringae; type: cell-based; conditions: M8 salts, 0.7% glucose, 0.5% Noble agar, 30° C., 24 to 48 hours
[3] = tested on: Pectobacterium atrosepticum; test: Biofilm growth assay, plant pathogen Pectobacterium atrosepticum; type: cell-based; conditions: M8 salts, 0.7% glucose, 0.5% Noble agar, 30° C., 24 to 48 hours
Evaluation of salts = type: physicochemical
Protocol: Evaluation of Compound 62 (Table 4) salt formation was performed. […] As stated herein, the invention also includes compounds and their salts. Evaluation of Compound 64 (Table 4) salt formation was performed. HCl (mono and bis), p-TSA (bis), BSA (bis), MSA (bis), H2SO4 (mono), and H3PO4 (mono) provided salts with crystallinity. […] As stated herein, the invention also includes compounds and their salts.

SMILES	P. aeruginosa (n = 10) inhibitory concentration in the biofilm growth assay (P. aeruginosa biofilms [1])	E. coli (n = 10) inhibitory concentration in the biofilm growth assay (E. coli biofilms)	Salmonella spp. (n = 6) inhibitory concentration in the biofilm growth assay (Salmonella spp.)	B. cepacia (n = 10) inhibitory concentration in the biofilm growth assay (B. cepacia)	IC85 (P. aeruginosa biofilms [1]; overnight 37° C.) [µg/mL]	IC85 (E. coli biofilms) [µg/mL]	further results
CC(C)(O/N=C(\C(=O)N[C@@H]1C(=O)N2C(C(=O)[O-])=C(C[n+]3ccccc3)CS[C@H]12)c1csc(N)n1)C(=O)O [Ceftazidime, ceftazidime, reference compound]	4	0.25	0.5	>8	–	–	–
CC1(C)CC[C@]2(C(=O)O)CC[C@]3(C)C(=CCC4[C@@]5(C)Cc6c(n[nH]c6N)C(C)(C)[C@@H]5CC[C@]43C)[C@@H]2C1 (stereo partly drawn) [Compound 1, (4aS,6aS,6bR,13aR)-12-Amino-2,2,6a,6b,9,9,13a-heptamethyl-2,3,4,4a,5,6,6a,6b,7,8,8a,9,11,13,13a,13b,14,15b-octadecahydro-1H-chryseno[1,2-f]indazole-4-a-carboxylic acid]	1	1	1	0.25	0.5 (≈ 1.01 µM)	1 (≈ 2.03 µM)	growth of the spreading P. aeruginosa biofilm (FIG. 1) (P. aeruginosa biofilms [1]; 0.5 μg/ml in agar, overnight 37° C.): prevented the growth; optimal working concentration (P. aeruginosa biofilms [1]; P. aeruginosa biofilm growth assay (FIG. 2 legend)): 0.5 µg/mL; combination with colistin at preventing the growth of P. aeruginosa biofilms (FIG. 2) (P. aeruginosa biofilms [2]): synergistic; concentration inhibiting the spreading biofilm of Xanthomonas campestris (Xanthomonas campestris): 0.5 µg/mL; modulation of cysB and genes under its control (cysB): modulates cysB and genes under its control; concentration inhibiting the spreading biofilm of Pseudomonas syringae (Pseudomonas syringae): 0.03 µg/mL; concentration inhibiting the spreading biofilm of Pectobacterium atrosepticum [3]: 0.06 µg/mL
CC1(C)CC[C@]2(C(N)=O)CC[C@]3(C)C(=CCC4[C@@]5(C)Cc6c(n[nH]c6N)C(C)(C)[C@@H]5CC[C@]43C)[C@@H]2C1 (stereo partly drawn) [Compound 62, (4aS,6aS,6bR,13aR)-12-Amino-2,2,6a,6b,9,9,13a-heptamethyl-2,3,4,4a,5,6,6a,6b,7,8,8a,9,11,13,13a,13b,14,15b-octadecahydro-1H-chryseno[1,2-f]indazole-4-a-carboxamide]	–	–	–	–	1 (≈ 2.03 µM)	1 (≈ 2.03 µM)	physical properties of salts compared to freebase (Evaluation of salts; p-toluenesulfonic acid (mono) and H3PO4 (bis) salts): most desirable physical properties
CN(C)C[C@]12CCC(C)(C)C[C@H]1C1=CC[C@@H]3[C@@]4(C)Cc5c(n[nH]c5N)C(C)(C)[C@@H]4CC[C@@]3(C)[C@]1(C)CC2 [Compound 64]	–	–	–	–	0.5 (≈ 0.987 µM)	1 (≈ 1.97 µM)	aqueous solubility of salts compared to freebase (Evaluation of salts; Bis-MSA and mono-H3PO4 salts): increased aqueous solubility
NC[C@H]1O[C@H](O[C@H]2[C@H](O)[C@@H](O[C@H]3O[C@H](CO)[C@@H](O)[C@H](N)[C@H]3O)[C@H](N)C[C@@H]2N)[C@H](N)C[C@@H]1O [Tobramycin, tobramcyin, reference compound]	4	16	8	>64	–	–	–
CC[C@H]1OC(=O)[C@H](C)[C@@H](O[C@H]2C[C@@](C)(OC)[C@@H](O)[C@H](C)O2)[C@H](C)[C@@H](O[C@@H]2O[C@H](C)C[C@H](N(C)C)[C@H]2O)[C@](C)(O)C[C@@H](C)CN(C)[C@H](C)[C@@H](O)[C@]1(C)O [Azithromycin, azithromycin]	>16	–	>16	>16	–	–	–
Cn1nc([C@]23CCC(C)(C)CC2C2=CCC4[C@@]5(C)Cc6c(n[nH]c6N)C(C)(C)C5CC[C@@]4(C)[C@]2(C)CC3)cc1N (stereo partly drawn) [Compound 72, (4aS,6aS,6bR,8aR,13aR,15bS)-4-a-(5-Amino-1-methyl-1H-pyrazol-3-yl)-2,2,6a,6b,9,9,13a-heptamethyl-2,3,4,4a,5,6,6a,6b,7,8,8a,9,11,13,13a,13b,14,15b-octadecahydro-1H-chryseno[1,2-f]indazol-12-amine]	–	–	–	–	1 (≈ 1.84 µM)	> 2	melting point: 195 to 210 °C (dec.)
